The text below walks through data of paper PMC8060220, “Comparative study of hyperpure chlorine dioxide with two other irrigants regarding the viability of periodontal ligament stem cells” (Clinical Oral Investigations, 2020).

Data set [1] has as its system PDLSCs. The data set can be described thus: WST-1 test, concentration-response study. In kind it is cell-based, human. The conditions noted are these: 48-h incubation, 50% viable cells. Here is the method: To evaluate the concentration-dependent effects of the 3 antiseptic agents (H2O2, CHX, and ClO2), 9 different dilutions of each agent were prepared with growth medium (from 3.91 × 10^−6 to 10^−3 M, by 1:2 dilution in each step). As ClO2 is photosensitive and volatile, its dilution series were made in dark Eppendorf tubes which were opened only for the inevitably required time. After a 48-h-long incubation, cell viability was assessed by WST-1 test and impedimetric measurement, respectively (see below). The […] (IC50) values corresponding to the 50% viable cells or 0.5 normalized CI were determined from the concentration-effect curves in the case of the two methods, respectively.
(§1) This assay is dedicated to measuring the viability of PDLSCs. In 96-well culture plates, 10,000 PDLSCs were seeded. After 24 h, samples were treated with the irrigative compounds, and final concentrations were H2O2 0.3%, CHX 0.02%, and ClO2 0.0025% and 0.00025% solutions in 4-4 parallel wells. After 10 min, all the irrigative agents were removed and the samples were washed three times with normal growth medium, simulating the diluting effect of saliva in the oral cavity during the periodontal treatments. Forty-eight hours after the treatments, the cell viability was measured by the cell proliferation reagent containing water-soluble tetrazolium salt, WST-1 [2-(4-Iodophenyl)-3-(4-nitrophenyl)-5-(2,4-disulfophenyl)-2H-tetrazolium] (Roche). This assay determines mitochondrial dehydrogenase enzyme activity resulting water-soluble cleavage product. The WST-1 reagent was used at 1:20 dilution and incubation time was 2 h at 37 °C. Absorbance was measured at 450 nm with a reference wavelength of 655 nm by a microplate reader (BIO-RAD Model 3550). Background control values were determined in wells seeded with no cells. Each value represents the average of minimum 3 parallel measurements.
(Tetrazolium assays rely on reduction of a dye to a coloured formazan, in cell work by metabolically active cells.)

Data set [2] has as its system PDLSCs. The data set can be described thus: WST-1 viability assay, 10 min treatment. In kind it is cell-based, human. The conditions noted are these: P3 and P7, 48 h. Here is the method:
as §1

In a further data set the test system is PDLSC cultures. The data set can be described thus: Morphological study, phase-contrast microscopy. Type of data set: cell-based, human. The conditions noted are these: 48 h after treatment; 0.3% H2O2, 0.02% CHX, 0.0025% or 0.00025% ClO2. An excerpt:
Cellular morphology was observed under an inverted phase-contrast microscope (Nikon TMS). Photomicrographs were taken applying a high-performance CCD camera (COHU) and the Scion image software.

Data set [3] deals with human gingival fibroblasts. On the set-up: method as in PMID 1962413. The conditions noted are these: cited from earlier work.
For another data set, the system named is bacteria. On the set-up: method as in PMID 24060558, PMID 23529300. The following applies: direct antibacterial and biofilm-dissolving effects; cited from earlier work.
Details of data set [4]: method as in ref S1. The following applies: ref S1, cited from earlier work.

For the compound `[O][Cl+][O-]` [ClO2, chlorine dioxide], in the data set with PDLSCs [1], the IC50 – broadly, the concentration needed to halve the response being measured – amounted to 638 µM. In addition, the “viability of PDLSC cultures, WST-1” value in the data set with PDLSCs [2] (0.3% H2O2, 0.02% CHX, higher ClO2 concentration (0.0025%)) is given as “no effect”; in the data set on PDLSCs [2] (lower ClO2 concentration (0.00025%)), “unequivocally neutral”. Moreover, the “cell morphology and cell number under phase-contrast microscope” value in the data set with PDLSC cultures is listed as “did not provoke morphological changes”. Further, the LD50 in data set [3] (human gingival fibroblasts) is reported as 0.16 mM. In addition, the apoptotic responses entry in data set [3] (low concentrations of ClO2) is “did not induce apoptotic responses”. Besides, the “times lower concentration of ClO2 needed to evoke the same or even stronger effect than that of CHX” value in the data set on bacteria was “approximately 10 times”. Also, the “diffusion coefficient D(pig bladder)” value in data set [4] (cellular pig bladder tissue) is 1.8×10^–6 cm^2s^–1. The “diffusion coefficient D(gelatine)” value in data set [4] (unstructured gelatine gel medium) is 2.4×10^–6 cm^2s^–1.
